Experiment [1] deals with MDA-MB-231 breast cancer cells. Description: Proliferation inhibitory activity assay against MDA-MB-231 breast cancer cells. In kind it is cell-based. The following applies: Homo sapiens, 72 hours, CellTiter Glo, relative IC50. How it is done: Experiments were performed using the MDA-MB-231 breast cancer cell line to measure the cell proliferation inhibitory ability of each Example compound. MDA-MB-231 cells were dispensed into a 96-well plate at 100 µL of cell suspension per well using L-15 (Invitrogen) medium containing 10 % FBS, followed by incubation in a cell incubator at 37 °C and 0 % CO2. The next day, each Example compound dissolved and diluted in DMSO across 9 concentration ranges and a DMSO control group were treated on the cells for 72 hours. After the compound treatment was completed, 100 µL of CellTiter Glo (Promega) reagent was added to each well of the 96-well plate, followed by shaking for 10 minutes and standing at room temperature for 10 minutes. Luminescence signals were measured after inserting the 96-well plate into an Envision plate reader (PerkinElmer). Relative IC50 values were calculated by fitting a dose-response curve using XLfit (IDBS Ltd) software.
The breast cancer cell proliferation inhibitory activities of the Example compounds measured by the above method were evaluated according to the following criteria, and the results are presented in Table 13.
Background: ATP-based viability assays read luminescence as a measure of living cells.

In a further experiment the target is CDK13 (Homo sapiens, UniProt Q14004). The experiment is described as follows: CDK13 kinase inhibitory activity assay (33P-ATP filter binding). In kind it is biochemical. As for the experimental part:
(§1) Before initiating the CDK12 and CDK13 kinase reactions, each Example compound was dissolved and diluted in DMSO as a solvent across 9 concentration ranges at room temperature. The diluted solutions were then incubated with a mixture of kinase and substrate (and cofactors, if required) for 20 minutes. Next, radioisotope-labeled ATP (^33P-gamma-ATP) was added to proceed with the kinase reaction at room temperature for 120 minutes. After the reaction was completed, the reaction mixture was transferred to a filter paper that binds the radioisotope-labeled catalytic product (^33P-substrate). Unreacted ^33P-ATP was removed by washing with 0.75 % phosphoric acid, and then the radioactive phosphorylated substrate remaining on the filter paper was measured. Kinase activity data were expressed as a percentage of the kinase activity remaining in the test sample compared to a DMSO control group. The half-maximal inhibitory concentration (IC50) for each kinase was calculated using Prism (Graphpad) software.

The target of experiment [2] is T1, CDK12 (Homo sapiens, UniProt Q9NYV4). The experiment is described as follows: CDK12 kinase inhibitory activity assay (33P-ATP filter binding). Type of experiment: biochemical. The settings on record: kinase reaction 120 minutes, 33P-gamma-ATP; read-out: CDK12 IC50. As for the experimental part: as §1
T1 sequence (Q9NYV4 whole entry, species assumed): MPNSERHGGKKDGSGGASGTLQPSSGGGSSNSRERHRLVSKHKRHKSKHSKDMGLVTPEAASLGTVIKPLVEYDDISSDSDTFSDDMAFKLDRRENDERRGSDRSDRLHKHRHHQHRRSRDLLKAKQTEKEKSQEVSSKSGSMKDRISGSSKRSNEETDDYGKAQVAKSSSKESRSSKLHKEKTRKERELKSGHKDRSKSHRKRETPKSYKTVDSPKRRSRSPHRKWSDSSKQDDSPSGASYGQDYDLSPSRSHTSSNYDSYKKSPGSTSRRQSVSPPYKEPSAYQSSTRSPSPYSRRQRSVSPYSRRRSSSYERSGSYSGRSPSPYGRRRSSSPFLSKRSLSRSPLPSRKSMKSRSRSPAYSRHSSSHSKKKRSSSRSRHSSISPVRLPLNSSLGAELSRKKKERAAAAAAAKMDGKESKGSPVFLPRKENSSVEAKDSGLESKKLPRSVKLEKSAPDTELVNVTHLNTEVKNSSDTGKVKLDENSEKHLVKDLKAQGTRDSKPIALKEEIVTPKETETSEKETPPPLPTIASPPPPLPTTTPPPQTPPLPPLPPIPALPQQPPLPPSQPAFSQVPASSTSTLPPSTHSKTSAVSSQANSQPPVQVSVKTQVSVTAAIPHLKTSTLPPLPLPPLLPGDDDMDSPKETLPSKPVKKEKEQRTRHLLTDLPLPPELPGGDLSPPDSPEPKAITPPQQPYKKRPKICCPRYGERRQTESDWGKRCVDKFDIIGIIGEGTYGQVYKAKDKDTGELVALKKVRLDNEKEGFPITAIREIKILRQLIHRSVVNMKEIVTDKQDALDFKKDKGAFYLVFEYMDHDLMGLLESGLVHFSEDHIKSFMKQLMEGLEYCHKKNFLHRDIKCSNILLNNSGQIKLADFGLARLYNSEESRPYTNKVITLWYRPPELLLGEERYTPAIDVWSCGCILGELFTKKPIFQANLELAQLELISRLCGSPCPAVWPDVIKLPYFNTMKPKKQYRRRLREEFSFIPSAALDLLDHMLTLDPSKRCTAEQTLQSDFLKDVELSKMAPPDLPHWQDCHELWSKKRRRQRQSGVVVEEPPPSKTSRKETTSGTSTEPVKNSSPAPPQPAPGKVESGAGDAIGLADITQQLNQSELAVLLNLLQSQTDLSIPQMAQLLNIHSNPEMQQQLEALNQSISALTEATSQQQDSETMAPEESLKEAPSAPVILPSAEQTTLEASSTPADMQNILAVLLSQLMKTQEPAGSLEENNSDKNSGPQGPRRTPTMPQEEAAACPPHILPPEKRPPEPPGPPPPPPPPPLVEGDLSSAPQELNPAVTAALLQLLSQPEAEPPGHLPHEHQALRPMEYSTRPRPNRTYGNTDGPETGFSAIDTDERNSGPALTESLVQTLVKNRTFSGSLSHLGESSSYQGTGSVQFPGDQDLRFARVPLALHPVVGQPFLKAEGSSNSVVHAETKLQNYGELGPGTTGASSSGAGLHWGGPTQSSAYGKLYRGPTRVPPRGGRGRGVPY
T1 sequence (O75909 whole entry partner, species assumed): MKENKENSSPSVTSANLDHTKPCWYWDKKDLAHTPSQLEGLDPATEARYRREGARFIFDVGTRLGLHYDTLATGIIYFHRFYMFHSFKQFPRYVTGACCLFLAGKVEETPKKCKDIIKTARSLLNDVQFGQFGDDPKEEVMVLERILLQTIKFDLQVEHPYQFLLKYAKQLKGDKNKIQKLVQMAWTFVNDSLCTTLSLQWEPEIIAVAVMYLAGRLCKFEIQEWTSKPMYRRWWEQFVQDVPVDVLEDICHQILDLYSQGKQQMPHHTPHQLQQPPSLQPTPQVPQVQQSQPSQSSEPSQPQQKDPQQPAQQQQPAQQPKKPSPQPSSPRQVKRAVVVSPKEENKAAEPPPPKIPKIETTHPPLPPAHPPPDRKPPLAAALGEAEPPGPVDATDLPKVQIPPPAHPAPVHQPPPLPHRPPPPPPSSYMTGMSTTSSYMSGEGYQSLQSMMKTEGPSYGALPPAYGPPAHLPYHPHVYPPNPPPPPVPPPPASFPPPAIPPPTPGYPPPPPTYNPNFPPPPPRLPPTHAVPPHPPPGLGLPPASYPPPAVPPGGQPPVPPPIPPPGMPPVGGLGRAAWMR
Experiment [3] concerns the target T1, CDK12. The experiment is described as follows: Cellular CDK12 inhibitory activity assay (Ser2 phosphorylation of RNA polymerase II subunit B1 CTD in MDA-MB-231 cells). Details: using MDA-MB-231 breast cancer cells; endogenous in cells; host or cells: MDA-MB-231. The settings on record: MDA-MB-231 cells, 6 hours treatment; read-out: pRpbl CTD S2 IC50. Type of experiment: cell-based. How it is done: MDA-MB-231 cells were dispensed into a 96-well plate at 100 µL of cell suspension per well using L-15 (Invitrogen) medium containing 10 % FBS, followed by overnight incubation in a cell incubator at 37 °C and 0 % CO2. The next day, each Example compound dissolved in DMSO across 9 concentration ranges and a DMSO control group were treated on the MDA-MB-231 cells at 37 °C and 0 % CO2 for 6 hours. After the compound treatment, the medium in the 96-well plate was removed, and 60 µL of a fixing solution (4.0 % paraformaldehyde in PBS) was added to each well, followed by standing for 20 minutes. After removing the fixing solution and washing with PBS, 60 µL of PBS containing 0.1 % Triton X-100 was dispensed into each well, followed by shaking at room temperature for 15 minutes. After washing with PBS, 100 µL of blocking buffer was added, followed by shaking at room temperature for 1 hour. After removing the blocking buffer, primary antibodies, which are RNA polymerase II subunit B1 phospho-Ser2 (1:500, Cell signaling technology) and RNA polymerase II subunit B1 carboxy-terminal domain (1:200, Cell signaling technology), were added at 60 µL per well and reacted overnight at 4 °C. After adding 150 µL of PBS containing 0.1 % Triton X-100 and washing at least twice by shaking at room temperature for 5 minutes, 60 µL of a secondary antibody was added, followed by shaking at room temperature for 1 hour while blocking light. After adding 150 µL of PBS containing 0.1 % Triton X-100 and washing at least twice by shaking at room temperature for 5 minutes, 150 µL of PBS was added again, followed by washing at least twice by shaking at room temperature for 5 minutes. The plate was scanned using a Li-COR Odyssey machine with the wells filled with PBS. IC50 values were calculated by fitting a dose-response curve using a 4-parameter model of Prism (Graphpad) software.

The mark [4] stands for this setting: kinase reaction 120 minutes, 33P-gamma-ATP, read-out: CDK13 IC50.

The structures appear in SMILES notation. Where two headings read alike, the source gives them in different places.

By IC50 is commonly meant the concentration that inhibits the measured activity by half.

CDK13, sequence (Q14004 whole entry, species assumed): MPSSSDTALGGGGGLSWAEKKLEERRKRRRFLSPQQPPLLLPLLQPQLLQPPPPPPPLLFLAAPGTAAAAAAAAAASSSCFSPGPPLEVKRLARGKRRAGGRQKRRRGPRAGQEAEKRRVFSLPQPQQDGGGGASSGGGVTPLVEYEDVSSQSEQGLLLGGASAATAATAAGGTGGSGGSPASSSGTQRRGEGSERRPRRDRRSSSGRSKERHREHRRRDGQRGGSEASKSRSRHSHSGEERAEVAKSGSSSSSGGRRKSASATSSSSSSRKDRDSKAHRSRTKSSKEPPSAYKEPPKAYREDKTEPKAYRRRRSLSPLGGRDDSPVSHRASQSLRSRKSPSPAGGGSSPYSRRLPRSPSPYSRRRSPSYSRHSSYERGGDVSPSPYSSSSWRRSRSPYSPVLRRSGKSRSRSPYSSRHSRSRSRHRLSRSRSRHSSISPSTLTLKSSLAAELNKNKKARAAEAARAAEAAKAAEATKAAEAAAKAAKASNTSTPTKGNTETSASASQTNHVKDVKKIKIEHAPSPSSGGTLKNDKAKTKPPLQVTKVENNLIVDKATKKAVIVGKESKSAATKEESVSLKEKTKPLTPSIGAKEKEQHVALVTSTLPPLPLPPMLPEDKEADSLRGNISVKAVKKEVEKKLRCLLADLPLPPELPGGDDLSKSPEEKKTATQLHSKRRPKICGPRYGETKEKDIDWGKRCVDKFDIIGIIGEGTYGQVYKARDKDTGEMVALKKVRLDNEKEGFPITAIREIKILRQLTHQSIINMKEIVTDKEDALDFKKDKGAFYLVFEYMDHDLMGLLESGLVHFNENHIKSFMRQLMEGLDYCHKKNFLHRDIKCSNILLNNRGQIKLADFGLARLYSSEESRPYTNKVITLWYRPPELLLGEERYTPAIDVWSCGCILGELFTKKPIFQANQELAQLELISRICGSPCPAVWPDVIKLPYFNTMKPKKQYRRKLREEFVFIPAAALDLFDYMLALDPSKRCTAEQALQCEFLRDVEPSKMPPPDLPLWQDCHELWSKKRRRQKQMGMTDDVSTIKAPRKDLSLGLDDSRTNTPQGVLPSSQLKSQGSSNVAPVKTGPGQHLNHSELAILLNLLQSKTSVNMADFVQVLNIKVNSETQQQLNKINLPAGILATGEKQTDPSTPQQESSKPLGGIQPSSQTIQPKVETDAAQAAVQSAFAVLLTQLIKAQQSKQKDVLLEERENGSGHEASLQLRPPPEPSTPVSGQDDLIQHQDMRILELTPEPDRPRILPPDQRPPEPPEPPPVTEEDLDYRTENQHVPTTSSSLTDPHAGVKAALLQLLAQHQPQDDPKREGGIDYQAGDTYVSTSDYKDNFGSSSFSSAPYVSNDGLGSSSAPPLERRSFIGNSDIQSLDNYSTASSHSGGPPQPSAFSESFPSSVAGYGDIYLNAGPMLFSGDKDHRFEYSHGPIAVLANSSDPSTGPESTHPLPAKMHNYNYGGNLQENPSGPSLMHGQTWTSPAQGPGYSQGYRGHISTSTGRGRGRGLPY
CDK13, sequence (O75909 whole entry partner, species assumed): as the sequence (O75909 whole entry partner, species assumed) above

As for `N#CC1CN(c2cc(NCc3nc4ccc(Cl)c(Cl)c4[nH]3)c3ncc(C(F)(F)F)n3n2)C1` [Example 55, 1-(8-(((6,7-dichloro-1H-benzo[d]imidazol-2-yl)methyl)amino)-3-(trifluoromethyl)imidazo[1,2-b]pyridazin-6-yl)azetidine-3-carbonitrile], the concentration for half-maximal inhibition (IC50) is 0.05 to 0.5 µM in experiment [1], less than 0.1 µM at CDK13 (setting [4]), less than 0.1 µM on CDK12 [2] and 0.3 to 3 µM at CDK12 [3].

For `N#CC1CCN(c2cc(NCc3nc4ccc(F)c(F)c4[nH]3)c3ncc(C(F)(F)F)n3n2)CC1` [Example 56, 1-(8-(((6,7-difluoro-1H-benzo[d]imidazol-2-yl)methyl)amino)-3-(trifluoromethyl)imidazo[1,2-b]pyridazin-6-yl)piperidine-4-carbonitrile], the IC50 was no more than 0.05 µM in experiment [1], less than 0.1 µM at CDK13 (setting [4]), less than 0.1 µM at CDK12 [2] and 0.3 to 3 µM at CDK12 [3].

Take `FC(F)(F)c1cnc2c(NCc3nc4cc(Cl)c(Cl)cc4[nH]3)cc(N3CCNCC3)nn12` [Example 57, N-((5,6-dichloro-1H-benzo[d]imidazol-2-yl)methyl)-6-(piperazin-1-yl)-3-(trifluoromethyl)imidazo[1,2-b]pyridazin-8-amine]: the half-maximal inhibitory concentration (IC50) in experiment [1] was no more than 0.05 µM; at CDK13 (setting [4]), less than 0.1 µM; at CDK12 [2] it was less than 0.1 µM; on CDK12 [3], less than 0.3 µM.

Consider `FC(F)(F)c1cnc2c(NCc3nc4cc(Cl)c(Cl)cc4[nH]3)cc(N3CC(NC4CC4)C3)nn12` [Example 58, 6-(3-(cyclopropylamino)azetidin-1-yl)-N-((5,6-dichloro-1H-benzo[d]imidazol-2-yl)methyl)-3-(trifluoromethyl)imidazo[1,2-b]pyridazin-8-amine], for which the 50% inhibitory concentration (IC50) is no more than 0.05 µM in experiment [1], 0.1 to 0.5 µM on CDK13 (setting [4]), greater than 0.5 µM on CDK12 [2] and less than 0.3 µM on CDK12 [3].

Regarding `N#CC1(O)CN(c2cc(NCc3nc4cc(Cl)c(Cl)cc4[nH]3)c3ncc(C(F)(F)F)n3n2)C1` [Example 59, 1-(8-(((5,6-dichloro-1H-benzo[d]imidazol-2-yl)methyl)amino)-3-(trifluoromethyl)imidazo[1,2-b]pyridazin-6-yl)-3-hydroxyazetidine-3-carbonitrile], the half-maximal inhibitory concentration (IC50) in experiment [1] was no more than 0.05 µM; at CDK13, 0.1 to 0.5 µM; at CDK12 [2], 0.1 to 0.5 µM; at CDK12 [3] it was less than 0.3 µM.

As to `OCC1CN(c2cc(NCc3nc4cc(Cl)c(Cl)cc4[nH]3)c3ncc(C(F)(F)F)n3n2)C1` [Example 60, (1-(8-(((5,6-dichloro-1H-benzo[d]imidazol-2-yl)methyl)amino)-3-(trifluoromethyl)imidazo[1,2-b]pyridazin-6-yl)azetidin-3-yl)methanol], the IC50 is 0.05 to 0.5 µM in experiment [1], less than 0.1 µM at CDK13, 0.1 to 0.5 µM at CDK12 [2] and 0.3 to 3 µM on CDK12 [3].

As for `N#CC1(O)CCN(c2cc(NCc3nc4cc(Cl)c(Cl)cc4[nH]3)c3ncc(C(F)(F)F)n3n2)C1` (centres unmarked) [Example 61, 1-(8-(((5,6-dichloro-1H-benzo[d]imidazol-2-yl)methyl)amino)-3-(trifluoromethyl)imidazo[1,2-b]pyridazin-6-yl)-3-hydroxypyrrolidine-3-carbonitrile], the IC50 in experiment [1] was no more than 0.05 µM; on CDK13 (setting [4]) it was 0.1 to 0.5 µM; at CDK12 [2] it was 0.1 to 0.5 µM; at CDK12 [3], less than 0.3 µM.

Take `O[C@@H]1CCN(c2cc(NCc3nc4cc(Cl)c(Cl)cc4[nH]3)c3ncc(C(F)(F)F)n3n2)C1` [Example 62, (R)-1-(8-(((5,6-dichloro-1H-benzo[d]imidazol-2-yl)methyl)amino)-3-(trifluoromethyl)imidazo[1,2-b]pyridazin-6-yl)pyrrolidin-3-ol]: the 50% inhibitory concentration (IC50) in experiment [1] is 0.05 to 0.5 µM; at CDK13, 0.1 to 0.5 µM; at CDK12 [2], 0.1 to 0.5 µM; on CDK12 [3], less than 0.3 µM.

The values above are taken from patent EP4813991A1 (iLeadBMS Co., Ltd., priority 2023, dated 2025).
